Data set [1] addresses T1, Corticotropin-releasing factor receptor 2/Corticotropin-releasing factor-binding protein (Homo sapiens, UniProt P24387+Q13324).
T1 sequence (Q13324 whole entry): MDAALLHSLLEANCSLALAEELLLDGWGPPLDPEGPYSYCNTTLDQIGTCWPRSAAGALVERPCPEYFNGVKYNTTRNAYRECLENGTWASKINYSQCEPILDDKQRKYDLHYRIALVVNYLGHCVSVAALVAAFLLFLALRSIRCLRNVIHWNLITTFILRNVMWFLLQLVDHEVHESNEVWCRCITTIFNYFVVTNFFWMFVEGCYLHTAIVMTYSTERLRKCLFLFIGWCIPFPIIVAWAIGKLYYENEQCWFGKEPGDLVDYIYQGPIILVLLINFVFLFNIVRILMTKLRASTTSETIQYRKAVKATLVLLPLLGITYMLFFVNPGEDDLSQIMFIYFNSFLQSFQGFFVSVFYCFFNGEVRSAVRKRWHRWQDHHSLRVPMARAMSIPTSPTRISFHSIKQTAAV
T1 sequence (P24387 whole entry): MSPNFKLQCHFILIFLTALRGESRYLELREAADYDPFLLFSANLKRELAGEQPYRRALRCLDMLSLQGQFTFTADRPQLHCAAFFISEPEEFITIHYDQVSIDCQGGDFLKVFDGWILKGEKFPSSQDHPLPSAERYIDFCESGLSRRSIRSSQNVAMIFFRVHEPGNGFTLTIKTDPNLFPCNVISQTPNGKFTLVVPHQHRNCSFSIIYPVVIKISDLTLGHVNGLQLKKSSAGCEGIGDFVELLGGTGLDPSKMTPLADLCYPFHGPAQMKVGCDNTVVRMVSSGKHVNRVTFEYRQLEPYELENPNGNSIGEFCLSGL
In words: activators of CRF receptor 2 with binding protein – uHTS hits, confirmation (AID 602473). Type of data set: functional. The conditions noted are these: read-out: EC50_Mean.

The target in data set [2] is T1, Corticotropin-releasing factor receptor 2/Corticotropin-releasing factor-binding protein. As to the kind of experiment: Dose Response confirmation of uHTS hits for small molecule antagonists of the CRF-binding protein and CRF-R2 receptor complex. Type of data set: functional. Particulars: read-out: IC50_Mean.
In data set [3] the test system is H9c2. In words: cells. Type of data set: functional, cell-based. The conditions noted are these: Rattus norvegicus, H9c2, Myocardium.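 Also: confirmatory concentration-response retest of ultra-high-throughput screening hits for modulation of myocardial damage; cell death induced by hydrogen peroxide oxidative stress; compound pretreatment for 60 min then peroxide exposure for 2 h; potency is for protecting the cells against peroxide damage rather than for killing them.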
In data set [4] the target is Cytochrome P450 3A4 (Homo sapiens, UniProt P08684).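 Also: CYP3A4 tested as one member of a cytochrome P450 panel screen.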
Data set [5] concerns the target T2, Cytochrome P450 1A2 (Homo sapiens, UniProt P05177).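 Also: PubChem cytochrome P450 panel assay, CYP1A2 panel member.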
T2 sequence (P05177 whole entry): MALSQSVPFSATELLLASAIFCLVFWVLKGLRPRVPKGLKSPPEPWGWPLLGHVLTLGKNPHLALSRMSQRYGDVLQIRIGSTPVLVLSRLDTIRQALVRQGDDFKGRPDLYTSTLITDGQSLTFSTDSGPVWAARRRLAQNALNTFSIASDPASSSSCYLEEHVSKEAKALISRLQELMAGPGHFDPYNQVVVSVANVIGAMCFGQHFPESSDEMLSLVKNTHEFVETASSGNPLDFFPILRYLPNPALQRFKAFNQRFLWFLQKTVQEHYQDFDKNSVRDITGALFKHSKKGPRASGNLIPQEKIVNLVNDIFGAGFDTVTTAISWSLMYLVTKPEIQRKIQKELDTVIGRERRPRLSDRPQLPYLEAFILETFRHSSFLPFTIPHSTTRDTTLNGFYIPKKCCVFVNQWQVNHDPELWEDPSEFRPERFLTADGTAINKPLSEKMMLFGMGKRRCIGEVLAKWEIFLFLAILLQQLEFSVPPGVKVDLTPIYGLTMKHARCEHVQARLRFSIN

The nature of data set [6]: fluconazole-exposed Candida albicans growth modulators – fluorescence, retest, confirmation (AID 2467). Type of data set: functional, cell-based.
The nature of data set [7]: NIH-3T3 fibroblast cytotoxicity, dose response, cytotoxicity control, cell-based, fluorescence, Alamar Blue, secondary assay (AID 2327).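 Also: NIH-3T3 mouse fibroblasts cultured with fluconazole at 8 µg/mL.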 Type of data set: functional. Background: Resazurin is reduced to fluorescent resorufin, in cell work by metabolically active cells.
The test system of data set [8] is Streptococcus. In words: GAS UMAA2166 growth inhibition – luminescence, BacTiterGlo, counter-screen for streptokinase expression inhibitor project, dose response (AID 1915).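 Also: potency for reduction of bacterial viability or growth.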 Type of data set: functional, organism-based. On the technique in general: The purpose of a counterscreen is to sort out artefacts and off-target activity.
Data set [9] concerns Streptococcus sp. 'group A'. As to the kind of experiment: Streptococcus pyogenes SK(-)GAS viability under kanamycin – luminescence, BacTiterGlo, confirmation, counter-screen for streptokinase expression inhibitor project, dose response (AID 1900). Type of data set: functional, organism-based.
In data set [10] the target is Cytochrome P450 2C19 (Homo sapiens, UniProt P33261). In words: Cytochrome panel assay with activity outcomes. Panel member name: p450-cyp2c19 Compounds with AC50 equal or less than 10 uM are considered active. Type of data set: functional.
Data set [11] deals with Cytochrome P450 2C9 (Homo sapiens, UniProt P11712).
Data set [12] is described as follows: Luminescence Cell-Based Dose Response HTS to Identify Activators of Luciferase Translation or Activity in H4 […] Cells. [Related pubchem assays: 1829 (Project Summary), 1814 (Primary HTS)]. Type of data set: functional.

Drawing on ChEMBL document CHEMBL1201862, “PubChem BioAssay data set” (2004), this text covers EC50, IC50 and AC50 for 45 molecules.

SMILES strings stand for the structures. The source made the active and inactive calls. Bounds are passed on as bounds.

One may read the AC50 as the concentration giving half of the maximal activity seen.

Cytochrome P450 2C9, sequence (P11712 whole entry): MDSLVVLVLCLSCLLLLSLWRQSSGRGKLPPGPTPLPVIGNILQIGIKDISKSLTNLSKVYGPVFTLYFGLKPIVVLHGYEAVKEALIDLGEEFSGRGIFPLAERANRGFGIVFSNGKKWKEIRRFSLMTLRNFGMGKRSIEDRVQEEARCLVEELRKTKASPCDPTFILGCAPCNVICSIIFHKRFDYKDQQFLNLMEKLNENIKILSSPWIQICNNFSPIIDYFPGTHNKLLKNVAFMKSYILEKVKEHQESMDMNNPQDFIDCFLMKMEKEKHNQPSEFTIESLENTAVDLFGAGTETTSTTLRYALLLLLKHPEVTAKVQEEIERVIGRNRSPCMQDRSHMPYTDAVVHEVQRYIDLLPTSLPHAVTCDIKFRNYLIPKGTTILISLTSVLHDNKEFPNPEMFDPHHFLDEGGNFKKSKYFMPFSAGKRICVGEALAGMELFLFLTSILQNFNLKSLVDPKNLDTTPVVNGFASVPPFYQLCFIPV
Cytochrome P450 3A4, sequence (P08684 whole entry): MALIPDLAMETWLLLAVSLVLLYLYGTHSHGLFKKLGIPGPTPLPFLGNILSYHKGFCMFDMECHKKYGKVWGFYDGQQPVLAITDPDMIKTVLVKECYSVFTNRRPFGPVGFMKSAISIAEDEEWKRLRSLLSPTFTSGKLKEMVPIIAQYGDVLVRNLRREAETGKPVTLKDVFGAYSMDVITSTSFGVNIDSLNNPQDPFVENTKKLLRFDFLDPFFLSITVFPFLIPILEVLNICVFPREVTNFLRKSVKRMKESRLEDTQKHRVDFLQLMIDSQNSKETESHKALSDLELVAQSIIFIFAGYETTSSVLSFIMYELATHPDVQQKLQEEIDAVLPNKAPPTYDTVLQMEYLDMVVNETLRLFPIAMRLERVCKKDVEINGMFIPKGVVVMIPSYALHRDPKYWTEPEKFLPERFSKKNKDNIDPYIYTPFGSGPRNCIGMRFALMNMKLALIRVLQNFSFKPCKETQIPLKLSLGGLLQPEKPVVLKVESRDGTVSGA
Cytochrome P450 2C19, sequence (P33261 whole entry): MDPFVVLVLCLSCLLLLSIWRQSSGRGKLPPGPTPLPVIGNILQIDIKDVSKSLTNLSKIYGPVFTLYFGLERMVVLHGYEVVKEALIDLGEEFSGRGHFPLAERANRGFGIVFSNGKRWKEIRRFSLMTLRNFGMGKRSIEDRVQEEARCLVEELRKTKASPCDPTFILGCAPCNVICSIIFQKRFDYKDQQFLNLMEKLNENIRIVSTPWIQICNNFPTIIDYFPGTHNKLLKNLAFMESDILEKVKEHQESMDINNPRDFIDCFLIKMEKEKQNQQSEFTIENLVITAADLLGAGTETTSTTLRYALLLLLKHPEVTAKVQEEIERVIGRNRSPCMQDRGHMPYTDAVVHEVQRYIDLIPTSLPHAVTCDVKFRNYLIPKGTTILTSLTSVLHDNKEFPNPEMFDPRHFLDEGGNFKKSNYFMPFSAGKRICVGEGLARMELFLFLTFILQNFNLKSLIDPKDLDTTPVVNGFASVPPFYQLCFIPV

Consider `Cc1cc(C)n(C(=O)CNC(=O)c2ccccc2Br)n1`, for which the EC50 in data set [1] is > 53 µM (inactive). The IC50 in [2] was > 47.1 µM (inactive).
Taken in the same sequence, the figures for `O=C(Nc1cccc(O)c1)c1ccc(NC(=O)c2cccs2)cc1` were > 53 µM (inactive) and > 47.1 µM (inactive).
For the molecule `Cc1ccc(S(=O)(=O)N2CCN(C(=O)CCc3nc(O)c4ccccc4n3)CC2)c(C)c1`, the IC50 in data set [3] was > 79 µM (inactive).
As for `O=c1c(-c2cc(F)cc(F)c2)nc2cncnc2n1Cc1ccccc1Cl`, the figures for the AC50 in data set [4] and in data set [5] were 15.8 µM (inconclusive) and 5.01 µM (inconclusive), respectively.
In the case of `Cc1ccc(NC(=O)COC(=O)CCC(=O)c2cccs2)c(Br)c1`, in data set [1], the EC50 is > 53 µM (inactive). Moreover, the IC50 in data set [2] is > 47.1 µM (inactive).
Turning to `O=C1CCc2cc(S(=O)(=O)N3CCC(C(=O)NC4CCCCCCC4)CC3)ccc2N1`, the EC50 in [1] is 34 µM (active). Besides, the IC50 in data set [2] is > 47.1 µM (inactive).
As for `O=C(CN1CCCCC1)Nc1nc(-c2ccc(F)c(F)c2)cs1`, in [3], the IC50 is > 79 µM (inactive).
For the molecule `COc1ccccc1CN1CCCC2(CCN(C(=O)Oc3ccccc3)CC2)C1`, the AC50 in data set [4] is 15.8 µM (inconclusive).
Regarding `C=CC/N=C1\CC(C)(C)CC(O)=C1C(=O)c1ccccc1`, the AC50 in data set [4] is 25.1 µM (inconclusive).
`CC#CCCCC(=O)Nc1ccccc1C(=O)O`: in data set [1], the EC50 is > 53 µM (inactive). Moreover, the IC50 in data set [2] is > 47.1 µM (inactive).
Turning to `COc1cccc(Nc2nc3ccccc3n3nnnc23)c1`, the IC50 in [3] was > 79 µM (inactive).
For the molecule `O=C(/C=C\c1ccc(-c2cccc([N+](=O)[O-])c2)o1)N1CCOCC1`, the EC50 was > 38 µM (not active) in [6] and > 150 µM (inactive) in [7].
For the molecule `Cc1ccccc1CN1C2=NCCN2C(=O)C2=C1CCN(Cc1ccccc1)C2`, the AC50 in [4] was 3.98 µM (inconclusive).
As to `CCN(CC(=O)Nc1c(F)cccc1F)C(=O)c1ccc2c(=O)n3c(nc2c1)CCC3`, the EC50 in [1] is > 53 µM (inactive). In addition, the IC50 in data set [2] is > 47.1 µM (inactive).
In the case of `C/C(CC(=O)Nc1ccc(Cl)c(C(F)(F)F)c1)=N\NC(=O)c1ccccc1O`, the figures for the EC50 in data set [8] and in data set [9] were 3.68 µM (active) and 2.77 µM (active), respectively.
Consider `COc1cccc(Cn2c(=O)c(-c3cccs3)nc3cnc(N(C)C)nc32)c1`, for which the AC50 was 15.8 µM (inconclusive) in [4], 15.8 µM (inconclusive) in data set [5] and 0.00631 µM (inconclusive) in [10] (read-out: AC50).
With `CCCCCn1nc(C(=O)OCC(=O)c2c(N)n(C)c(=O)n(C)c2=O)c2ccccc2c1=O`, the IC50 in [3] was > 79 µM (inactive).
On to `Cc1[nH]c(=O)[nH]c(=O)c1S(=O)(=O)N1CCCC(C(=O)N2CCN(c3ccccc3Cl)CC2)C1` (stereo unspecified), for which the EC50 in [1] was > 53 µM (inactive). The IC50 in data set [2] is > 47.1 µM (inactive).
Consider `CCn1nc(C(=O)NNC(=O)c2cc(Cl)ccc2OC)c2ccccc2c1=O`, for which, in [3], the IC50 was > 79 µM (inactive).
Regarding `C=CCNC(S)=NNc1ncnc2sc3c(c12)CC(C)(C)OC3`, the AC50 in data set [4] was 17.8 µM (inconclusive); in data set [5], 12.6 µM (inconclusive); in data set [11], 8.91 µM (inconclusive); in data set [10] (read-out: AC50), 8.91 µM (inconclusive).
As to `CCN1CCN(C(=O)C2c3cc(OC)c(OC)cc3C(=O)N3CCc4ccccc4C23)CC1` (stereo unspecified), the figures for the AC50 in [4] and in data set [10] were 28.2 µM (inconclusive) and “inconclusive”, respectively.
Consider `CCOC(=O)c1sc(NC(=O)C(C)(C)C)cc1C`, for which, in data set [12], the EC50 is 13 µM (active).
Turning to `O=C(C[C@H]1C/C=C\CC[C@H](Cc2ccc(F)cc2)C(=O)O[C@@H](c2ccccc2)CNC1=O)N[C@H](CO)Cc1ccccc1`, the IC50 in [3] was > 79 µM (inactive).
As to `CN1CCN(c2ncc3nc(-c4cc(F)cc(F)c4)c(=O)n(CCC#N)c3n2)CC1`, the AC50 in [4] was 15.8 µM (inconclusive); in data set [5] it was 15.8 µM (inconclusive); in data set [11] it was 31.6 µM (inconclusive).
For `CCOc1ccc(NC(=O)Nc2cc(C)ccc2OC)cc1`, the EC50 in data set [1] is > 53 µM (inactive). Besides, the IC50 in data set [2] is > 47.1 µM (inactive).
On to `Cn1c(C(=O)NCCc2ccsc2)cc2c(=O)n(C)c3ccccc3c21`, for which, in data set [3], the IC50 is > 79 µM (inactive).
Still for that read-out and setting: as for `CC(=O)Nc1cccc(NC(=O)c2cc(-c3cccnc3)nc3ccc(Cl)cc23)c1`, the figure is > 79 µM (inactive); as for `COc1cccc(C(=O)Nc2cc(C)c3c(=O)oc4ccccc4c3n2)c1`, > 79 µM (inactive).
Take `C/C(O)=C(/C#N)C(=O)Nc1cc(Br)ccc1Br`: the AC50 in data set [4] is 15.8 µM (inconclusive).
Consider `Cc1ccccc1Cn1c(=O)sc2ccccc2c1=O`, for which, in [1], the EC50 was > 53 µM (inactive). Also, the IC50 in data set [2] was > 47.1 µM (inactive).
On to `CCC(C)NS(=O)(=O)c1ccc(OCC(=O)Nc2ccc3c(c2)OCCO3)cc1` (stereo unspecified), for which the AC50 in data set [4] is 15.8 µM (inconclusive); in data set [10] (read-out: AC50), 7.08 µM (inconclusive).
As to `CC(C)CN1CC[C@@]2(CCCN(C(=O)c3csnn3)C2)C1`, in data set [4], the AC50 was 20 µM (inconclusive).
Turning to `Cc1cc(OCc2nc(N)nc(N)c2-c2ccc(Cl)c(Cl)c2)ccc1[N+](=O)[O-]`, the AC50 was 3.98 µM (inconclusive) in data set [4] and 5.01 µM (inconclusive) in data set [5].
Consider `COc1ccccc1C(=O)O/N=C1/CCCc2c1ccc(OC)c2[N+](=O)[O-]`, for which the AC50 in data set [4] is 22.4 µM (inconclusive).
As to `Cc1nnc(-c2cnn(-c3ccccc3)c2N)n1Cc1ccccc1`, the results for the AC50 in data set [4] and in [11] were 25.1 µM (inconclusive) and 39.8 µM (inconclusive), respectively.
In the case of `Cc1ccc(C(=O)CC(=O)c2ccc(C(C)(C)C)cc2)cc1`, the EC50 in data set [6] is > 38 µM (not active); in data set [7], > 160 µM (inactive).
In the case of `Cc1ccc(S(=O)(=O)n2ccc(-c3cccc(OCc4c(F)cccc4Cl)c3)n2)cc1`, the half-maximal activity concentration (AC50) in [4] is 7.94 µM (inconclusive).
Consider `CCOC(=O)C(Cc1ccc(NC(=O)/C(=C/c2ccc(OC(C)=O)cc2)NC(C)=O)cc1)N1C(=O)c2ccccc2C1=O` (stereo unspecified), for which the IC50 in data set [3] is > 79 µM (inactive).
For `COc1cccc(Cn2c(=O)c(-c3cccs3)nc3cnc(Nc4cccc(OC)c4)nc32)c1`, the AC50 in [4] is 12.6 µM (inconclusive); in data set [5] it was 2.51 µM (inconclusive); in data set [11], 0.794 µM (inconclusive).
In the case of `CCOC(=O)c1csc(Nc2nc3ccc(F)cc3s2)n1`, the EC50 is 11.4 µM (active) in [8] and 5.24 µM (active) in data set [9].
Taken in the same sequence, the figures for `O=C(NC(=S)N1CCN(c2nc(-c3ccccc3)cs2)CC1)c1cncc(Br)c1` were 3.91 µM (active) and 3.04 µM (active).
`COc1ccc(NC(=O)c2cc(S(=O)(=O)N3CCS(=O)(=O)CC3)ccc2Cl)cc1`: in data set [4], the AC50 is 14.1 µM (inconclusive).
In the case of `Brc1ccc(CSc2nnc(-c3cnccn3)n2Cc2ccco2)cc1`, the EC50 in data set [6] is 1.58 µM (active); in [7], > 160 µM (inconclusive).
For the molecule `COc1cccc(CN(C(=O)c2cc3ccccc3oc2=O)C2CC2)c1`, the EC50 in data set [6] was > 38 µM (not active); in data set [7] it was 18.6 µM (inconclusive).
With `NC(=O)c1ccc(NCC2COc3ccccc3O2)c([N+](=O)[O-])c1` (stereo unspecified), the EC50 in data set [1] was > 53 µM (inactive). The IC50 in data set [2] is > 47.1 µM (inactive).
